Reference: patent US20040266623A1, “SYNERGISTIC QUINCLORAC HERBICIDAL COMPOSITIONS” (priority 2003, published 2004)

How the values were obtained:
Test in all cases: Greenhouse pot test, postemergent spray, visual control rating converted to percent control
Type in all cases: in vivo
white clover = tested on: white clover
Method: (§1) Pots of crabgrass, dandelion, white clover, and plantain grown in greenhouse soiless growth media were sprayed with a greenhouse pot sprayer at 43.46 gallons of spray solution/acre and allowed to stand in the greenhouse. Visual observation of the effects made by the herbicidal compositions on the plants in the test pots was recorded for control of crabgrass, dandelion, clover and plantain at 24 hours after treatment (HAT), 48 hours after treatment (HAT), 72 hours after treatment (HAT), 7 days after treatment (DAT), 14 days after treatment (DAT) and 21 days after treatment (DAT). A control rating scale of 1 to 9 was used to record the visual observation of the effect of the herbicidal composition on the plants over the time period of the tests. 1=no control, and 9=death of plant, with intervening numbers representing successive degrees of observed effectiveness of the herbicidal composition over time. The 1-9 control rating scale was converted to percent control in the test data charts that follow.
(§2) The test protocol of S. R. Colby as set out in his article entitled “Calculating Synergistic and Antagonistic Responses of Herbicide Compositions,” received for publication Apr. 11, 1966, Contribution No. 3796 and Scientific Article No. 1271 of the Maryland Agricultural Experiment Station, Department pf Agronomy, University of Maryland was followed to evaluate the synergistic properties of the combination of quinclorac plus a herbicidal protox inhibitor, and a combination of quinclorac, plus a herbicidal protox inhibitor plus a herbicidal auxinic agent as compared with the individual herbicides, using Colby's formulas E=X+Y−XY/100 for a two herbicide combination, where E=the expected percent of inhibition of growth by herbicides, X=the percent inhibition of growth by herbicide A at p lb/A, and Y=the percent inhibition of growth by herbicide B at q lb/A, for a given combination of two herbicides. Colby's formula E=X+Y+Z−(XY+XZ+YZ)/100+XYZ/10,000, was used for the three-way herbicide combination evaluation, where E, X and Y are the same as in the two herbicide formula and Z=the percent inhibition of growth by the third herbicide.

plantain = tested on: plantain
Method: as §1, §2

dandelion = tested on: dandelion
Method: as §1, §2

crabgrass = tested on: crabgrass
Method: as §1, §2

[1] = Test 3, 7 DAT, scale 1=no control, 9=death of plant
[2] = Test 3, 14 DAT, scale 1=no control, 9=death of plant
[3] = Test 3, 21 DAT, scale 1=no control, 9=death of plant
[4] = Test 3, 24 HAT, scale 1=no control, 9=death of plant
[5] = Test 3, 72 HAT, scale 1=no control, 9=death of plant
[6] = Test 4, 24 HAT, scale 1=no control, 9=death of plant
[7] = Test 4, 72 HAT, scale 1=no control, 9=death of plant

Cc1nn(-c2cc(CC(Cl)C(=O)O)c(Cl)cc2F)c(=O)n1C(F)F (stereo not shown) [Carfentrazone]
% Control Clover (white clover; Test 1, 7 DAT, 0.01 lbs/A): 66.7%
Control (1-9) Clover (white clover; Test 1, 7 DAT, 0.01 lbs/A): 6
% Control Clover (white clover; Test 1, 7 DAT, 0.02 lbs/A): 66.7%
Control (1-9) Clover (white clover; Test 1, 7 DAT, 0.02 lbs/A): 6
% Control Clover (white clover; Test 1, 14 DAT, 0.01 lbs/A): 77.8%
Control (1-9) Clover (white clover; Test 1, 14 DAT, 0.01 lbs/A): 7
% Control Clover (white clover; Test 1, 14 DAT, 0.02 lbs/A): 100.0%
Control (1-9) Clover (white clover; Test 1, 14 DAT, 0.02 lbs/A): 9
% Control Clover (white clover; Test 1, 24 HAT, 0.01 lbs/A): 33.3%
Control (1-9) Clover (white clover; Test 1, 24 HAT, 0.01 lbs/A): 3
% Control Clover (white clover; Test 1, 24 HAT, 0.02 lbs/A): 33.3%
Control (1-9) Clover (white clover; Test 1, 24 HAT, 0.02 lbs/A): 3
% Control Clover (white clover; Test 1, 48 HAT, 0.01 lbs/A): 55.6%
Control (1-9) Clover (white clover; Test 1, 48 HAT, 0.01 lbs/A): 5
% Control Clover (white clover; Test 1, 48 HAT, 0.02 lbs/A): 55.6%
Control (1-9) Clover (white clover; Test 1, 48 HAT, 0.02 lbs/A): 5
% Control Clover (white clover; Test 4, 7 DAT, 0.01 lbs/A): 66.7%
Control (1-9) Clover (white clover; Test 4, 7 DAT, 0.01 lbs/A): 6
% Control Clover (white clover; Test 4, 7 DAT, 0.02 lbs/A): 77.8%
Control (1-9) Clover (white clover; Test 4, 7 DAT, 0.02 lbs/A): 7
% Control Clover (white clover; Test 4, 14 DAT, 0.01 lbs/A): 66.7%
Control (1-9) Clover (white clover; Test 4, 14 DAT, 0.01 lbs/A): 6
% Control Clover (white clover; Test 4, 14 DAT, 0.02 lbs/A): 88.9%
Control (1-9) Clover (white clover; Test 4, 14 DAT, 0.02 lbs/A): 8
% Control Plantain (plantain; Test 4, 7 DAT, 0.01 lbs/A): 100.0%
Control (1-9) Plantain (plantain; Test 4, 7 DAT, 0.01 lbs/A): 9
% Control Plantain (plantain; Test 4, 7 DAT, 0.02 lbs/A): 88.9%
Control (1-9) Plantain (plantain; Test 4, 7 DAT, 0.02 lbs/A): 8
% Control Plantain (plantain; Test 4, 14 DAT, 0.01 lbs/A): 100.0%
Control (1-9) Plantain (plantain; Test 4, 14 DAT, 0.01 lbs/A): 9
% Control Plantain (plantain; Test 4, 14 DAT, 0.02 lbs/A): 88.9%
Control (1-9) Plantain (plantain; Test 4, 14 DAT, 0.02 lbs/A): 8
% Control Dandelion (dandelion; Test 1, 7 DAT, 0.01 lbs/A): 88.9%
Control (1-9) Dandelion (dandelion; Test 1, 7 DAT, 0.01 lbs/A): 8
% Control Dandelion (dandelion; Test 1, 7 DAT, 0.02 lbs/A): 88.9%
Control (1-9) Dandelion (dandelion; Test 1, 7 DAT, 0.02 lbs/A): 8
% Control Dandelion (dandelion; Test 1, 14 DAT, 0.01 lbs/A): 88.9%
Control (1-9) Dandelion (dandelion; Test 1, 14 DAT, 0.01 lbs/A): 8
% Control Dandelion (dandelion; Test 1, 14 DAT, 0.02 lbs/A): 100.0%
Control (1-9) Dandelion (dandelion; Test 1, 14 DAT, 0.02 lbs/A): 9
% Control Dandelion (dandelion; Test 1, 24 HAT, 0.01 lbs/A): 44.4%
Control (1-9) Dandelion (dandelion; Test 1, 24 HAT, 0.01 lbs/A): 4
% Control Dandelion (dandelion; Test 1, 24 HAT, 0.02 lbs/A): 33.3%
Control (1-9) Dandelion (dandelion; Test 1, 24 HAT, 0.02 lbs/A): 3
% Control Dandelion (dandelion; Test 1, 48 HAT, 0.01 lbs/A): 55.6%
Control (1-9) Dandelion (dandelion; Test 1, 48 HAT, 0.01 lbs/A): 5
% Control Dandelion (dandelion; Test 1, 48 HAT, 0.02 lbs/A): 55.6%
Control (1-9) Dandelion (dandelion; Test 1, 48 HAT, 0.02 lbs/A): 5
% Control Dandelion (dandelion; Test 4, 7 DAT, 0.01 lbs/A): 55.6%
Control (1-9) Dandelion (dandelion; Test 4, 7 DAT, 0.01 lbs/A): 5
% Control Dandelion (dandelion; Test 4, 7 DAT, 0.02 lbs/A): 88.9%
Control (1-9) Dandelion (dandelion; Test 4, 7 DAT, 0.02 lbs/A): 8
% Control Dandelion (dandelion; Test 4, 14 DAT, 0.01 lbs/A): 55.6%
Control (1-9) Dandelion (dandelion; Test 4, 14 DAT, 0.01 lbs/A): 5
% Control Dandelion (dandelion; Test 4, 14 DAT, 0.02 lbs/A): 88.9%
Control (1-9) Dandelion (dandelion; Test 4, 14 DAT, 0.02 lbs/A): 8
% Control Crabgrass (crabgrass; Test 1, 7 DAT, 0.01 lbs/A): 77.8%
Control (1-9) Crabgrass (crabgrass; Test 1, 7 DAT, 0.01 lbs/A): 7
% Control Crabgrass (crabgrass; Test 1, 7 DAT, 0.02 lbs/A): 77.8%
Control (1-9) Crabgrass (crabgrass; Test 1, 7 DAT, 0.02 lbs/A): 7
% Control Crabgrass (crabgrass; Test 1, 14 DAT, 0.01 lbs/A): 33.3%
Control (1-9) Crabgrass (crabgrass; Test 1, 14 DAT, 0.01 lbs/A): 3
% Control Crabgrass (crabgrass; Test 1, 14 DAT, 0.02 lbs/A): 33.3%
Control (1-9) Crabgrass (crabgrass; Test 1, 14 DAT, 0.02 lbs/A): 3
% Control Crabgrass (crabgrass; Test 1, 24 HAT, 0.01 lbs/A): 22.2%
Control (1-9) Crabgrass (crabgrass; Test 1, 24 HAT, 0.01 lbs/A): 2
% Control Crabgrass (crabgrass; Test 1, 24 HAT, 0.02 lbs/A): 33.3%
Control (1-9) Crabgrass (crabgrass; Test 1, 24 HAT, 0.02 lbs/A): 3
% Control Crabgrass (crabgrass; Test 1, 48 HAT, 0.01 lbs/A): 33.3%
Control (1-9) Crabgrass (crabgrass; Test 1, 48 HAT, 0.01 lbs/A): 3
% Control Crabgrass (crabgrass; Test 1, 48 HAT, 0.02 lbs/A): 55.6%
Control (1-9) Crabgrass (crabgrass; Test 1, 48 HAT, 0.02 lbs/A): 5
% Control Crabgrass (crabgrass; Test 4, 7 DAT, 0.01 lbs/A): 55.6%
Control (1-9) Crabgrass (crabgrass; Test 4, 7 DAT, 0.01 lbs/A): 5
% Control Crabgrass (crabgrass; Test 4, 7 DAT, 0.02 lbs/A): 55.6%
Control (1-9) Crabgrass (crabgrass; Test 4, 7 DAT, 0.02 lbs/A): 5
% Control Crabgrass (crabgrass; Test 4, 14 DAT, 0.01 lbs/A): 55.6%
Control (1-9) Crabgrass (crabgrass; Test 4, 14 DAT, 0.01 lbs/A): 5
% Control Crabgrass (crabgrass; Test 4, 14 DAT, 0.02 lbs/A): 55.6%
Control (1-9) Crabgrass (crabgrass; Test 4, 14 DAT, 0.02 lbs/A): 5

Cc1nn(-c2cc(NS(C)(=O)=O)c(Cl)cc2Cl)c(=O)n1C(F)F [Sulfentrazone @ 0.03 lbs/A]
% Control Clover (white clover; Test 3, 7 DAT): 44.4%
Control (1-9) Clover (white clover; [1]): 4
% Control Clover (white clover; Test 3, 14 DAT): 55.6%
Control (1-9) Clover (white clover; [2]): 5
% Control Clover (white clover; Test 3, 21 DAT): 55.6%
Control (1-9) Clover (white clover; [3]): 5
% Control Clover (white clover; Test 3, 24 HAT): 22.2%
Control (1-9) Clover (white clover; [4]): 2
% Control Clover (white clover; Test 3, 72 HAT): 33.3%
Control (1-9) Clover (white clover; [5]): 3
% Control Plantain (plantain; Test 3, 7 DAT): 88.9%
Control (1-9) Plantain (plantain; [1]): 8
% Control Plantain (plantain; Test 3, 14 DAT): 88.9%
Control (1-9) Plantain (plantain; [2]): 8
% Control Plantain (plantain; Test 3, 21 DAT): 100.0%
Control (1-9) Plantain (plantain; [3]): 9
% Control Plantain (plantain; Test 3, 24 HAT): 44.4%
Control (1-9) Plantain (plantain; [4]): 4
% Control Plantain (plantain; Test 3, 72 HAT): 66.7%
Control (1-9) Plantain (plantain; [5]): 6
% Control Dandelion (dandelion; Test 3, 7 DAT): 66.7%
Control (1-9) Dandelion (dandelion; [1]): 6
% Control Dandelion (dandelion; Test 3, 14 DAT): 77.8%
Control (1-9) Dandelion (dandelion; [2]): 7
% Control Dandelion (dandelion; Test 3, 21 DAT): 77.8%
Control (1-9) Dandelion (dandelion; [3]): 7
% Control Dandelion (dandelion; Test 3, 24 HAT): 33.3%
Control (1-9) Dandelion (dandelion; [4]): 3
% Control Dandelion (dandelion; Test 3, 72 HAT): 55.6%
Control (1-9) Dandelion (dandelion; [5]): 5
% Control Crabgrass (crabgrass; Test 3, 7 DAT): 55.6%
Control (1-9) Crabgrass (crabgrass; [1]): 5
% Control Crabgrass (crabgrass; Test 3, 14 DAT): 55.6%
Control (1-9) Crabgrass (crabgrass; [2]): 5
% Control Crabgrass (crabgrass; Test 3, 21 DAT): 44.4%
Control (1-9) Crabgrass (crabgrass; [3]): 4
% Control Crabgrass (crabgrass; Test 3, 24 HAT): 11.1%
Control (1-9) Crabgrass (crabgrass; [4]): 1
% Control Crabgrass (crabgrass; Test 3, 72 HAT): 44.4%
Control (1-9) Crabgrass (crabgrass; [5]): 4

Cc1nn(-c2cc(CC(Cl)C(=O)O)c(Cl)cc2F)c(=O)n1C(F)F (stereo not shown) [Carfentrazone @ 0.01 lbs/A]
% Control Clover (white clover; Test 4, 24 HAT): 22.2%
Control (1-9) Clover (white clover; [6]): 2
% Control Clover (white clover; Test 4, 72 HAT): 44.4%
Control (1-9) Clover (white clover; [7]): 4
% Control Plantain (plantain; Test 4, 24 HAT): 33.3%
Control (1-9) Plantain (plantain; [6]): 3
% Control Plantain (plantain; Test 4, 72 HAT): 88.9%
Control (1-9) Plantain (plantain; [7]): 8
% Control Dandelion (dandelion; Test 4, 24 HAT): 22.2%
Control (1-9) Dandelion (dandelion; [6]): 2
% Control Dandelion (dandelion; Test 4, 72 HAT): 33.3%
Control (1-9) Dandelion (dandelion; [7]): 3
% Control Crabgrass (crabgrass; Test 4, 24 HAT): 11.1%
Control (1-9) Crabgrass (crabgrass; [6]): 1
% Control Crabgrass (crabgrass; Test 4, 72 HAT): 22.2%
Control (1-9) Crabgrass (crabgrass; [7]): 2
